Entries after “also recorded” stand apart in the source; their conditions may differ. Read-outs that look alike come from different tables or passages of the source. Numbered stars: 1 amine (or outer) side, 2 acyl side, 3 side chain; on linkers, the order of the positions; unused ones are H or OH. Square brackets hold non-standard residues; d marks the D form. Peptide text beside a SMILES is read from it. X1 = NCCCC[C@H](N)CN([C@@H](CCCCN)C(=O)[*:2])[*:1]; Ala(SiMe3) = C[Si](C)(C)C[C@H](N)C(=O)O; Dmt = Cc1cc(O)cc(C)c1C[C@H](N)C(=O)O; Tle = CC(C)(C)[C@H](N)C(=O)O
Columns and labels:
hNTS1 [1] = target: T1, hNTS1 (Homo sapiens, UniProt P30989); assay: Competitive radioligand binding assay, 125I-[Tyr3]-NT displacement, CHO-K1 cell membranes
Description: (§1) All media and additives are from Wisent (St-Bruno, QC). […] After 1 h of incubation at room temperature, the binding reaction mixture was transferred in polyethylenimine-coated 96-well-filter plates (Millipore, Billerica, MA). Reaction was terminated by filtration, and plates were washed three times with 200 μl of ice-cold binding buffer. […] Data were plotted using GraphPad Prism 8 using the One-site—Fit log (IC50) and represent the mean ± SEM of at least three separate experiments performed in triplicate.

hNTS2 [2] = target: T2, hNTS2 (Homo sapiens, UniProt O95665); conditions: Ki values taken from the literature (Figure 1 legend) ref Fanelli et al., 2015; Eiselt et al., 2019; read-out: Binding, Ki hNTS2; cited from earlier work
hNTS2 [3] = target: T2, hNTS2; assay: Competitive radioligand binding assay, 125I-[Tyr3]-NT displacement, 1321N1 cell membranes; conditions: ratio of Ki hNTS1 to Ki hNTS2
Description: as §1

Sprague-Dawley rats = assay: Body temperature measurement after intrathecal injection; type: in vivo; conditions: rat; for effect on body temperature: compared to the saline-treated group; for Hypothermia ΔTemp: 30 μg/kg, i.t., change in body temperature from baseline at 60 min
Excerpt: The experimental procedures in this study were approved by the Animal Care Committee of the Université de Sherbrooke (protocol n°035-18B) and were in accordance with policies and directives of the Canadian Council on Animal Care. Adult male Sprague-Dawley rats, weighing 175–225 g (Charles River laboratories, St-Constant, Québec, Canada), were maintained on a 12-h light/dark cycle with free access to food and water and were housed two per cage on Aspen shavings in a quiet room.
Rats were lightly anesthetized with isoflurane/oxygen (Baxter corporation, Mississauga, ON, Canada; 2 L/min) flow and 25 μl of each compound were injected intrathecally with a 27-G 1/2 needle (BD PrecisionGlide, USA) into the subarachnoid space between vertebrae L5 and L6. Analogs 1–14 were diluted in physiological saline at 5 mg/ml, whereas compounds 15 and 16 were diluted in DMSO. For body temperature measurement, the injected solution of these both compounds contained 6% DMSO at final concentration (30 μg/kg).
Three consecutive days prior to testing, animals were individually acclimatized to manipulations and to a thermistor probe 5 min per day. The day of the test, experiments were always performed in a quiet room and between 8:00 and 12:00 PM. to reduce any variation related to the circadian rhythm. Body temperature was measured using a thermistor probe inserted into the rectum of adult Sprague-Dawley rats. Temperatures were recorded immediately before (baseline) and each 10 min for up to 60 min following intrathecal administration of saline, vehicle (6% DMSO) or NT analogs at 30 μg/kg. Changes in body temperature (Δ body temp) from baseline were determined for each animal. Data are expressed as mean ± SEM of 5 to 20 animals per condition.
Data are expressed as mean ± standard errors of the mean (SEM). All graphs and statistical analysis were performed using GraphPad Prism 8 (GraphPad software, La Jolla, CA, USA). A two-way ANOVA followed by Bonferroni's multiple comparisons test was used to determine significant differences between drug- and vehicle-treated rats at different timepoints post-injection.

hNTS1 [4] = target: T1, hNTS1; conditions: 2015, cited from earlier work
[5] = Plasma stability assay (UPLC/MS); type: in vitro ADME; conditions: rat, plasma, 37°C, incubation up to 24 h
Description: Rat plasma was obtained from blood by keeping the translucent phase after centrifugation at 15,000 g over 5 min. Plasma stability assay was carried out by incubating each compound at different incubation times in rat plasma at a final concentration of 0.156 mM. […] Then, 70 μl of a solution containing 10% trichloroacetic acid (TCA) and 0.5% nicotinamine, an internal standard, was added to stop the degradation by proteases. After centrifugation at 15,000 g for 30 min, supernatant was filtered through 0.22-μm filter and analyzed by UPLC/MS (Water H Class Acquity UPLC, mounted with Acquity UPLC BEH C18 column, 1.7 μm, 2.1 × 50 mm and paired to a SQ Detector 2). Compounds 1, 2, and 5 were analyzed using the mass or UV spectrum. Quantification was done by determining the area under the curve (AUC) ratio of each compound over AUC of nicotinamine for each incubation time. Data were plotted into GraphPad Prism 8 and the half-life of each compound was calculated using one-phase decay fit and represented the mean ± SEM of minimum three separate experiments.

[6] = Ki values taken from the literature (Figure 1 legend) ref Fanelli et al., Eiselt et al., 2019, read-out: Binding, Ki hNTS1

T1 sequence (P30989 whole entry): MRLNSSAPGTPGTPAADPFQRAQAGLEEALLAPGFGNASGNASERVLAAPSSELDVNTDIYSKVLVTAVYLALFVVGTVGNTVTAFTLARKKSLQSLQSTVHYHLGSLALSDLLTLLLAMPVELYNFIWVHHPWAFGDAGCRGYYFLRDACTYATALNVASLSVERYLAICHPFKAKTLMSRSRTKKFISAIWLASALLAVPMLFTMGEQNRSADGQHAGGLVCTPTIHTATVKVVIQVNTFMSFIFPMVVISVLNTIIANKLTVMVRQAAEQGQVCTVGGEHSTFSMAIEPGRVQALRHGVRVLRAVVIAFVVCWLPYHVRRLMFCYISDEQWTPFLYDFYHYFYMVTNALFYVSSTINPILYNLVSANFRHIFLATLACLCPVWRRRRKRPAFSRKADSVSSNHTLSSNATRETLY
T2 sequence (O95665 whole entry): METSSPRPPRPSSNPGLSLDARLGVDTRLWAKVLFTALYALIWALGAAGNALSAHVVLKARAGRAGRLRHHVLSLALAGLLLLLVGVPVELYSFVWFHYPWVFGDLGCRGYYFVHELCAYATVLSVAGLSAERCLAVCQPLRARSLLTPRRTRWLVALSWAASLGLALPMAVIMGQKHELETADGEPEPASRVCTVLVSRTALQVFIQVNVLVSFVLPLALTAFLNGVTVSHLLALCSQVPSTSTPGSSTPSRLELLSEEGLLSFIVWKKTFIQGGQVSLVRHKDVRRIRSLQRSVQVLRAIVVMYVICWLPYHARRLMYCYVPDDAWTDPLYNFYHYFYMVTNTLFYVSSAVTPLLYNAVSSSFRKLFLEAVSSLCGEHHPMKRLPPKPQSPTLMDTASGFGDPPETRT

SMILES	fold increase in affinity at NTS1 (hNTS1 [1]; compared to 1) [fold]	fold increase in affinity at NTS1 (hNTS1 [1]; compared to native NT(8-13)) [fold]	Ki (hNTS2 [2]) [nM]	NTS1/NTS2 selectivity (hNTS2 [3])	effect on body temperature (Sprague-Dawley rats; 30 μg/kg i.t.)	Hypothermia ΔTemp (Sprague-Dawley rats) [°C]	Ki (hNTS1 [4]; [6]) [nM]	Ki (hNTS1 [4]; ref Fanelli et al., read-out: Ki NTS1) [nM]	temperature drop (Sprague-Dawley rats; for up to 60 min, 30 μg/kg i.t.)	half-life at 0.156 mM [5] [h]
CC[C@H](C)[C@H](NC(=O)[C@H](Cc1ccc(O)cc1)NC(=O)[C@@H]1CCCN1C(=O)[C@H](CCCCN)NC(=O)[C@@H](N)CCCCN)C(=O)N[C@@H](C[Si](C)(C)C)C(=O)O [Compound 3, H-Lys-Lys-Pro-Tyr-Ile-TMSAla-OH] (H-KKPYI[Ala(SiMe3)]-OH)	220	80	0.25 ± 0.07	0.1	not effective in reducing the body temperature; also recorded: not effective to induce drop in body temperature	−0.07 ± 0.1	0.018 ± 0.004	~0.02		
Cc1cc(O)cc(C)c1C[C@H](NC(=O)[C@@H]1CCCN1C(=O)[C@H](CCCCN)NC[C@@H](N)CCCCN)C(=O)N[C@H](C(=O)N[C@@H](CC(C)C)C(=O)O)C(C)(C)C [Compound 16, H-Lysψ[CH2NH]Lys-Pro-Dmt-Tle-Leu-OH] (H-[X1]P[Dmt][Tle]L-OH)			1.4 ± 0.5	79	long-lasting hypothermia	−2.0 ± 0.3	110 ± 2		more than 2 °C	> 20
